The record followed here is patent US20020065259A1, “Glucocorticoid blocking agents for increasing blood-brain barrier permeability” (priority 2000, published 2002).

Read-outs that look alike come from different tables or passages of the source.

For data set [1], the system named is BBB permeability. Kind of data set: Example 2: mifepristone pellet in rats, brain haloperidol and clozapine levels and brain dopamine metabolites. In kind it is in vivo. As for the experimental part: Rats (male Sprague Dawley 175-200 grams) are maintained, 3 rats per cage, under controlled temperature and lighting (12 hours light/12 hours dark) with food and water ad libitum. […] Two hours prior to sacrifice the animals are injected with either haloperidol (1 mg/kg s.c; RBI Natick, Mass.) or an equivalent volume of vehicle (0.3% tartaric acid, pH 5.3) or with either clozapine (15 mg/kg s.c.; RBI, Natick, Mass.) or vehicle (0.9% saline plus 0.8% acetic acid). Animal sacrifice is by decapitation during the first four hours of the light cycle. Blood is collected and brains removed and frozen on dry ice for storage at −80° C. Frozen brains are sliced into 250 μm sections with a cryostat. The medial prefrontal cortex (AP 13.7 to 12.2 mm) is dissected with a scalpel, the striatum (AP 10.7 to 9.7 mm) is removed with stainless steel cannulae from frozen slices and the core and shell of the nucleus accumbens (AP 10.7 to 9.7 mm) is removed. Brain regions are dissected within 24-72 hours of slicing. […] Dopamine metabolites homovanillic acid (HVA) and dihydroxyphenylacetic acid (DOPAC) are measured in the brains of the experimental animals. […] Tissue pellets are dissolved in 1.0 N NaOH for protein determination (BioRad, Richmond, Calif.). Cortical supernatants are filtered through a 0.45 μm filter and 5-80 μl of supernatant is injected directly onto a C18 reverse phase analytical column (5 μm, 250×4.6 mm; Biophase ODS, BAS, West Lafayette, Ind.) protected by a precolumn cartridge (5 μm, 30×4.6 mm, BAS) as described with modification (Lindley et al. Proc. Soc. Exp. Biol. Med. 188:282-286 (1988)). DOPAC and HVA were detected using an electrochemical detector. For cortical regions, the conditioning electrode is set at +0.35 V and the dual analytical electrode is set at +0.02 V and −0.35 V, respectively (ESA, Bedford, Mass.). For other regions a single analytical electrode set at +0.72 V is used (BAS, West Lafayette, Ind.). Brain clozapine levels are analyzed by National Medical Services, Inc. (Willow Grove, PN) while brain and plasma haloperidol and reduced haloperidol and plasma clozapine levels are analyzed by Analytical Psychopharmacology Laboratories (Nathan Kline Institute, Orangeburg, N.Y.), both by gas chromatography.

Data set [2] has as its system BBB permeability. Kind of data set: Example 3: mifepristone pellet in rats, delivery of Amphotericin B to brain. Type of data set: in vivo. The following applies: mifepristone 200 mg 10-day sustained release pellet, Amphotericin B 0.1 mg i.v. 2 h before sacrifice. How it is done:
Rats (male Sprague Dawley 175-200 grams) are maintained, 3 rats per cage, under controlled temperature and lighting (12 hours light/12 hours dark) with food and water ad libitum. […] Two hours prior to sacrifice the animals are injected with either Amphotericin B (0.1 mg i.v.; Sigma Chemical Co., (800) 325-3010) or an equivalent volume of vehicle (0.1% DMSO in saline, pH 11). Animal sacrifice is by decapitation during the first four hours of the light cycle. Blood is collected and brains removed and frozen on dry ice for storage at −80° C. Amphotericin B concentration is measured in the brains of the experimental animals. The Amphotericin B concentration is greater in the brains of mifepristone-treated animals than in placebo-treated animals.

Data set [3] has as its system BBB permeability. As to the kind of experiment: Example 4: mifepristone pellet in rats, delivery of ampicillin to brain. The note with it: mifepristone 200 mg 10-day sustained release pellet, ampicillin 1.5 mg i.v. 2 h before sacrifice. Type of data set: in vivo. How it is done:
Animal sacrifice is by decapitation during the first four hours of the light cycle. Blood is collected and brains removed and frozen on dry ice for storage at −80° C. Ampicillin concentration is measured in the brains of the experimental animals.

In data set [4] the test system is BBB permeability. Kind of data set: Example 5: mifepristone pellet in rats, delivery of methotrexate to brain. In kind it is in vivo. The following applies: mifepristone 200 mg 10 day sustained-release pellet, methotrexate 0.5 mg i.v. 2 h before sacrifice. How it is done: Rats (male Sprague Dawley 175-200 grams) are maintained, 3 rats per cage, under controlled temperature and lighting (12 hours light/12 hours dark) with food and water ad libitum. […] Two hours prior to sacrifice the animals are injected with either methotrexate (0.5 mg i.v; Sigma Chemical Co., (800)325-3010) or an equivalent volume of vehicle (saline, pH 9). Animal sacrifice is by decapitation during the first four hours of the light cycle. Blood is collected and brains removed and frozen on dry ice for storage at −80° C. Methotrexate concentration is measured in the brains of the experimental animals. The methotrexate concentration is greater in the brains of mifepristone-treated animals than in placebo-treated animals.

Data set [5] concerns BBB permeability. Kind of data set: Example 6: mifepristone s.c. injection in rats, delivery of adriamycin to brain. Type of data set: in vivo. The note with it: mifepristone 2 mg s.c. 4 h before sacrifice, adriamycin 0.5 mg i.v. 2 h before sacrifice. How it is done:
Animal sacrifice is by decapitation during the first four hours of the light cycle. Blood is collected and brains removed and frozen on dry ice for storage at −80° C. Adriamycin concentration is measured in the brains of the experimental animals.

The subject of data set [6] is BBB permeability. The following applies: adrenalectomized rats with vehicle (placebo) pellets; haloperidol 1 mg/kg s.c. or clozapine 15 mg/kg s.c., 2 h before sacrifice.
Where [7] appears, read: rats, mifepristone 200 mg 10-day sustained-release pellet, clozapine 15 mg/kg s.c.
Setting [8] is: rats, mifepristone 200 mg 10-day sustained-release pellet, haloperidol 1 mg/kg s.c.

With `CC#C[C@]1(O)CC[C@H]2[C@@H]3CCC4=CC(=O)CCC4=C3[C@@H](c3ccc(N(C)C)cc3)C[C@@]21C` [mifepristone, (11β,17β)-11-[4-(dimethylamino)phenyl]-17-hydroxy-17-(1-propynyl)estra-4,9-dien-3-one], in the data set on BBB permeability [1] (setting [7]), the “brain concentration of clozapine, mifepristone-treated vs placebo” value was “greater” and the “increase in dopamine metabolite levels following clozapine treatment, mifepristone-treated vs placebo” value was “greater”. Moreover, in the data set on BBB permeability [1] (setting [8]), the “brain concentration of haloperidol, mifepristone-treated vs placebo” value is listed as “greater” and the “increase in dopamine metabolite levels following haloperidol treatment, mifepristone-treated vs placebo” value is “greater”. For the same compound, in the data set with BBB permeability [2], the “Amphotericin B concentration in the brain, mifepristone-treated vs placebo” value is “greater”. For the same compound, the “ampicillin concentration in the brain, mifepristone-treated vs placebo” value in the data set with BBB permeability [3] is “greater”. Besides, the “methotrexate concentration in the brain, mifepristone-treated vs placebo” value in the data set on BBB permeability [4] was “greater”. Further, the “adriamycin concentration in the brain, mifepristone-treated vs placebo” value with BBB permeability [5] is “greater”.

With `O=C(CCCN1CCC(O)(c2ccc(Cl)cc2)CC1)c1ccc(F)cc1` [haloperidol], the “measured levels of HVA and DOPAC in the brain” value in the data set with BBB permeability [1] (rats with placebo pellet, haloperidol 1 mg/kg s.c. or clozapine 15 mg/kg s.c., 2 h before sacrifice) is reported as “elevated”; in the data set on BBB permeability [6], “elevated”.
